For 24 molecules, T/C results are on record in PubChem BioAssay AID330 (DTP/NCI, 2004).

The test system of this assay is P388 leukemia ip, CD2F1 mice, survival T/C. As to the kind of experiment: NCI In Vivo Anticancer Drug Screen. Data for tumor model P388 Leukemia (intraperitoneal) in CD2F1 (CDF1) mice. To be noted: endpoint: median survival time, higher = longer survival. In a few lines: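 Mice carrying the transplanted tumor received test compound or vehicle. Survival was recorded in each group, and the value is the treated-group measurement divided by that of the vehicle-treated control group.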

Where [1] appears, read: dose: 50.0 mg/kg/injection, schedule: Q01DX009 (ip), vehicle: saline with Tween-80.
[2] abbreviates: dose: 100.0 mg/kg/injection, schedule: Q01DX009 (ip), vehicle: saline with Tween-80.
Setting [3] is: dose: 200.0 mg/kg/injection, schedule: Q01DX009 (ip), vehicle: saline with Tween-80.
The mark [4] stands for this setting: dose: 50.0 mg/kg/injection, schedule: Q01DX005 (ip), vehicle: saline with Tween-80.
Setting [5] is: dose: 100.0 mg/kg/injection, schedule: Q01DX005 (ip), vehicle: saline with Tween-80.
The mark [6] stands for this setting: dose: 200.0 mg/kg/injection, schedule: Q01DX005 (ip), vehicle: saline with Tween-80.
Where [7] appears, read: dose: 60.0 mg/kg/injection, schedule: Q01DX005 (ip), vehicle: saline with Tween-80.
Where [8] appears, read: dose: 120.0 mg/kg/injection, schedule: Q01DX005 (ip), vehicle: saline with Tween-80.
Setting [9] is: dose: 25.0 mg/kg/injection, schedule: Q01DX009 (ip), vehicle: saline with Tween-80.
[10] abbreviates: dose: 50.0 mg/kg/injection, schedule: Q01DX005 (ip), vehicle: saline.
Setting [11] is: dose: 100.0 mg/kg/injection, schedule: Q01DX005 (ip), vehicle: saline.
Setting [12] is: dose: 200.0 mg/kg/injection, schedule: Q01DX005 (ip), vehicle: saline.
The mark [13] stands for this setting: dose: 50.0 mg/kg/injection, schedule: Q01DX009 (ip), vehicle: Klucel (hydroxypropylcellulose) (HPC).
[14] abbreviates: dose: 100.0 mg/kg/injection, schedule: Q01DX009 (ip), vehicle: Klucel (hydroxypropylcellulose) (HPC).

Values joined by “and” are separate entries in the source; they are usually repeats but may differ in a detail not shown here. Equal entries are not always repeated. Inconclusive results and toxic doses are left out.

With `CC(=O)C(Cc1ccccc1)NC(=O)C(F)(F)F` (stereo not given), the T/C was 93 % of control under setting [1], 90 % of control under setting [2] and 98 % of control under setting [3].

`Cc1cccc2c(=O)c(CCl)c(-c3ccccc3)sc12`: the T/C is, setting by setting: under setting [4], 103 % of control; under setting [5], 116 % of control; under setting [6], 119 % of control.

Consider `Fc1ccc(CSC(=S)Nc2ccc(Br)cc2)cc1`, for which the T/C is, setting by setting: (dose: 50.0 mg/kg/injection, schedule: Q01DX009 (ip), vehicle: suspension in saline) 100 % of control; (dose: 100.0 mg/kg/injection, schedule: Q01DX009 (ip), vehicle: suspension in saline) 108 % of control; (dose: 200.0 mg/kg/injection, schedule: Q01DX009 (ip), vehicle: suspension in saline) 101 % of control.

With `C1CCc2c(-c3n[nH]c4c3CCCC4)n[nH]c2C1`, the T/C under setting [7] is 103 % of control; the T/C under setting [8] is 101 % of control; the T/C (dose: 240.0 mg/kg/injection, schedule: Q01DX005 (ip), vehicle: saline with Tween-80) was 100 % of control.

Consider `C/C(=N\NC(=S)N1CC2CCC(CC2)C1)c1nccs1`, for which the T/C reads like this: (dose: 12.5 mg/kg/injection, schedule: Q01DX005 (ip), vehicle: saline with Tween-80) 124 % of control; under setting [4], 154 % of control.

Regarding `O=C(O)c1c[nH]c2c(ccc3[nH]cc(C(=O)O)c(=O)c32)c1=O`, the T/C reads like this: (dose: 60.0 mg/kg/injection, schedule: Q01DX005 (ip), vehicle: Klucel (hydroxypropylcellulose) (HPC)) 105 % of control; (dose: 120.0 mg/kg/injection, schedule: Q01DX005 (ip), vehicle: Klucel (hydroxypropylcellulose) (HPC)) 102 % of control; (dose: 240.0 mg/kg/injection, schedule: Q01DX005 (ip), vehicle: Klucel (hydroxypropylcellulose) (HPC)) 92 % of control.

Consider `CCC(C)(CC)OC(N)=O`, for which the T/C runs as follows: under setting [9], 100 % of control; under setting [1], 91 % of control; under setting [2], 109 % of control; under setting [3], 105 % of control.

For `O=C(/C=C/c1ccccc1O)/C=C/c1ccccc1O`, the T/C (dose: 8.0 mg/kg/injection, schedule: Q01DX009 (ip), vehicle: saline with Tween-80) is 118 % of control; the T/C (dose: 12.0 mg/kg/injection, schedule: Q01DX009 (ip), vehicle: saline with Tween-80) was 118 % of control; the T/C (dose: 18.0 mg/kg/injection, schedule: Q01DX009 (ip), vehicle: saline with Tween-80) was 113 % of control; the T/C under setting [9] was 115 % of control.

`CN(C)N1C(=O)C2C3C=CC(O3)C2C1=O` (stereo not given): the T/C under setting [10] was 104 % of control, the T/C under setting [11] is 109 % of control and the T/C under setting [12] was 100 % of control.

`CSc1nc2c3ccccc3ccn2c(=N)c1C#N`: the T/C (dose: 25.0 mg/kg/injection, schedule: Q04DX002 (ip), vehicle: saline) was 104 % of control and the T/C (dose: 50.0 mg/kg/injection, schedule: Q04DX002 (ip), vehicle: saline) is 109 % of control.

For the molecule `O=S(=O)(O)O.[NH-]CC([NH-])c1ccccc1.[Pt+2]` (stereo not given), the T/C runs as follows: (dose: 6.25 mg/kg/injection, schedule: Q04DX002 (ip), vehicle: saline with Tween-80) 184 % of control; (dose: 12.5 mg/kg/injection, schedule: Q04DX002 (ip), vehicle: saline with Tween-80) 88 % of control.

For the molecule `CNC(=S)SCc1ccccc1`, the T/C under setting [1] is 99 % of control and the T/C under setting [2] was 110 % of control.

Turning to `CC(C)=CCc1c(OC(=O)c2c(C)cc(O)cc2O)cc(CO)c(CO)c1O`, the T/C (dose: 6.25 mg/kg/injection, schedule: Q01DX009 (ip), vehicle: Klucel (hydroxypropylcellulose) (HPC)) is 101 % of control; the T/C (dose: 12.5 mg/kg/injection, schedule: Q01DX009 (ip), vehicle: Klucel (hydroxypropylcellulose) (HPC)) was 100 % of control and 101 % of control; the T/C (dose: 25.0 mg/kg/injection, schedule: Q01DX009 (ip), vehicle: Klucel (hydroxypropylcellulose) (HPC)) was 101 % of control and 96 % of control; the T/C under setting [13] was 101 % of control and 104 % of control; the T/C under setting [14] was 101 % of control and 102 % of control.

Regarding `COC(=O)c1c[n+]([O-])ccc1OC`, the T/C by setting is: under setting [10], 102 % of control; under setting [11], 106 % of control; under setting [12], 102 % of control.

With `C/C(=N\NC(N)=O)c1ccc(Cl)c(-n2cccc2)c1`, the T/C runs as follows: (dose: 50.0 mg/kg/injection, schedule: Q01DX005 (ip), vehicle: Klucel (hydroxypropylcellulose) (HPC)) 92 % of control; (dose: 100.0 mg/kg/injection, schedule: Q01DX005 (ip), vehicle: Klucel (hydroxypropylcellulose) (HPC)) 91 % of control; (dose: 200.0 mg/kg/injection, schedule: Q01DX005 (ip), vehicle: Klucel (hydroxypropylcellulose) (HPC)) 94 % of control.

Turning to `CCOC(=O)C(C#N)c1cc(O)c(O)c2ccc(O)cc12` (stereo not given), the T/C by setting is: (dose: 100.0 mg/kg/injection, schedule: Q01DX001 (ip), vehicle: saline with Tween-80) 97 % of control; (dose: 200.0 mg/kg/injection, schedule: Q01DX001 (ip), vehicle: saline with Tween-80) 107 % of control; (dose: 400.0 mg/kg/injection, schedule: Q01DX001 (ip), vehicle: saline with Tween-80) 106 % of control.

As for `CNC1=CC(=O)c2c(c3cc(O)ccc3n2C)C1=O`, the T/C is, setting by setting: (dose: 12.5 mg/kg/injection, schedule: Q01DX009 (ip), vehicle: saline) 103 % of control; (dose: 25.0 mg/kg/injection, schedule: Q01DX009 (ip), vehicle: saline) 103 % of control; (dose: 50.0 mg/kg/injection, schedule: Q01DX009 (ip), vehicle: saline) 103 % of control and 87 % of control; (dose: 200.0 mg/kg/injection, schedule: Q01DX009 (ip), vehicle: saline) 104 % of control.

`CSC(=S)/C(=C/Nc1ccccn1)c1ccccc1`: the T/C was 100 % of control (dose: 0.93 mg/kg/injection, schedule: Q01DX005 (ip), vehicle: Klucel (hydroxypropylcellulose) (HPC)) and 94 % of control (dose: 1.87 mg/kg/injection, schedule: Q01DX005 (ip), vehicle: Klucel (hydroxypropylcellulose) (HPC)).

Take `CC1CN=C(c2ccc(NC(=O)c3ccc(C(=O)Nc4ccc(C5=NCC(C)N5)cc4)c(N)c3)cc2)N1` (stereo not given): the T/C is, setting by setting: (dose: 0.5 mg/kg/injection, schedule: Q04DX003 (ip), vehicle: saline) 100 % of control; (dose: 1.0 mg/kg/injection, schedule: Q04DX003 (ip), vehicle: saline) 110 % of control; (dose: 2.0 mg/kg/injection, schedule: Q04DX003 (ip), vehicle: saline) 120 % of control; (dose: 2.5 mg/kg/injection, schedule: Q01DX009 (ip), vehicle: saline with Tween-80) 195 % of control; (dose: 5.0 mg/kg/injection, schedule: Q01DX009 (ip), vehicle: saline with Tween-80) 255 % of control; (dose: 10.0 mg/kg/injection, schedule: Q01DX009 (ip), vehicle: saline with Tween-80) 170 % of control. Also, the T/C (dose: 10.0 mg/kg/injection, schedule: Q04DX003 (ip), vehicle: saline with Tween-80) is 159 % of control.

For the molecule `C=C1NC(=O)C(N)=C1C(C)=O`, the T/C is, setting by setting: under setting [7], 100 % of control; under setting [8], 104 % of control.

In the case of `COC1=CC(=O)C(O)=C(CC2(C)C(C)CCC3(C)C2CCCC3(C)C)C1=O` (stereo not given), the T/C reads like this: under setting [13], 112 % of control; under setting [14], 112 % of control.

Regarding `COCCN[C@@H]1C[C@@](C)(O)Cc2cc3c(c(O)c21)C(=O)c1c(O)cc2c(c1C3=O)O[C@H]1O[C@]2(C)[C@@H](O)[C@H](N(C)C)[C@H]1O`, the T/C (dose: 2.5 mg/kg/injection, schedule: Q01DX009 (ip), vehicle: other) is 105 % of control; the T/C (dose: 5.0 mg/kg/injection, schedule: Q01DX009 (ip), vehicle: other) is 105 % of control; the T/C (dose: 7.5 mg/kg/injection, schedule: Q01DX009 (ip), vehicle: other) is 120 % of control; the T/C (dose: 10.0 mg/kg/injection, schedule: Q01DX009 (ip), vehicle: other) is 111 % of control; the T/C (dose: 60.0 mg/kg/injection, schedule: Q01DX009 (ip), vehicle: other) is 154 % of control.

Regarding `Cc1ccc(S(=O)(=O)N/N=C/c2cccc([N+](=O)[O-])c2O)cc1`, the T/C runs as follows: under setting [4], 101 % of control; under setting [5], 104 % of control; under setting [6], 93 % of control.

In the case of `Cc1cc2nc3c(=O)[nH]c(=O)nc-3n(CC(O)C(O)C(O)CO)c2cc1C` (stereo not given), the T/C runs as follows: under setting [1], 99 % of control and 104 % of control; under setting [2], 96 % of control and 98 % of control.
